Laboratory results: PubChem BioAssay (NCI)
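Method: 48-hour compound exposure of cells in 96-well plates, five concentrations, linear interpolation of endpoints. GI50 is the concentration that inhibits growth by half. The concentration for full growth arrest is given as TGI.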

What was measured:
Test in all cases: growth of human tumour cells (NCI), 48 h
M14 melanoma = system: M14 melanoma
SF-539 CNS = system: SF-539 CNS
NCI-H460 lung = system: NCI-H460 lung
UO-31 renal = system: UO-31 renal
SK-MEL-28 melanoma = system: SK-MEL-28 melanoma
SF-268 CNS = system: SF-268 CNS
KM12 colon = system: KM12 colon
UACC-62 melanoma = system: UACC-62 melanoma
HT29 colon = system: HT29 colon
OVCAR-4 ovarian = system: OVCAR-4 ovarian

SMILES	GI50 (M14 melanoma) [µM]	TGI (M14 melanoma) [µM]	GI50 (SF-539 CNS) [µM]	TGI (SF-539 CNS) [µM]	GI50 (NCI-H460 lung) [µM]	TGI (NCI-H460 lung) [µM]	GI50 (UO-31 renal) [µM]	TGI (UO-31 renal) [µM]	GI50 (SK-MEL-28 melanoma) [µM]	TGI (SK-MEL-28 melanoma) [µM]	GI50 (SF-268 CNS) [µM]	TGI (SF-268 CNS) [µM]	GI50 (KM12 colon) [µM]	TGI (KM12 colon) [µM]	GI50 (UACC-62 melanoma) [µM]	TGI (UACC-62 melanoma) [µM]	GI50 (HT29 colon) [µM]	TGI (HT29 colon) [µM]	GI50 (OVCAR-4 ovarian) [µM]	TGI (OVCAR-4 ovarian) [µM]
Oc1c(C(Nc2cccc3ccccc23)c2ccccc2)ccc2cccnc12 (stereo not given)	2.01	8.48	4.56	21.4	2.07	18.5	1.62	23	4.14	> 100	3.04	28.7	5.03	> 100	2.82	39.6	5.57	> 100	2.3	> 100
CCNC(C)(C)C(SS)c1ccc(Br)cc1 (stereo not given)		> 100		> 100		> 100		> 100		> 100		> 100		> 100		> 100		69.3		> 100
CNC(=S)N/N=C1\CC(c2ccccc2)Oc2ccccc21 (stereo not given)		> 100		> 100		> 100		> 100		> 100		> 100		> 100		> 100		> 100		> 100
CN(Cc1cnc(N)nc1N)c1ccc(C(=O)O)cc1	> 100	> 100	> 100	> 100	> 100	> 100	> 100	> 100	> 100	> 100	> 100	> 100	> 100	> 100	> 100	> 100	> 100	> 100	> 100	> 100
COc1cc(/C=N/Nc2ncnc3c2cnn3C(C)C)ccc1O	11.8	> 25	4.76	15.2	8.34	> 25	3.56	17.3	8.08	> 25	7.68	> 22.8	6.2	24.7	6.98	> 20.9	8.18	> 25	14.4	> 25
NC1=NC(c2ccc(Cl)cc2)N(c2ccc(S(=O)(=O)Nc3ncccn3)cc2)C(N)=N1 (stereo not given)		> 100		> 100		> 100		> 100		> 100		> 100		> 100		> 100		> 100		> 100
Clc1ccccc1C(n1ncc2ccccc21)n1ncc2ccccc21		> 100		> 100		> 100		94.4		> 100		> 100		> 100		> 10		> 100		> 100
[N-]=[N+]=Nc1ccc(CCN2CCN(c3cccc(C(F)(F)F)c3)CC2)cc1I		> 100		> 100		> 100		> 100		> 100		> 100		> 100		> 100		> 100		> 100
